pIC50: −log10 of the molar value.
Test system: KRAS PDC tumor spheroids (HUVEC+MSC), viability
Test: Anticancer human tumor 254851-301-R-J1-PDC patient-derived colon carcinoma cell line growth inhibition [KRAS2]
Settings: for pIC50: curve of first compound; for viability, T/C: stronger effect = lower value; active = viability on the fitted dose curve at most 10% of control; inactive = the rest
How it was run: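 KRAS-mutant tumor cells were grown as spheroids with HUVEC endothelial cells and human MSCs as stroma. Targeted agents were tested alone and with KRAS pathway inhibitors. Doses started at or near clinical Cmax, or 10 microM, descending half-log.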

[1] = second compound 0.1 µM, first compound 0.0316 µM
[2] = second compound 0.1 µM, first compound 0.1 µM
[3] = second compound 0.1 µM, first compound 0.316 µM
[4] = second compound 0.1 µM, first compound 1 µM
[5] = second compound 0.1 µM, first compound 3.16 µM
[6] = second compound 0.1 µM, first compound 10 µM
[7] = second compound 0.316 µM, first compound 0.0316 µM
[8] = second compound 0.316 µM, first compound 0.1 µM
[9] = second compound 0.316 µM, first compound 0.316 µM
[10] = second compound 0.316 µM, first compound 1 µM
[11] = second compound 0.316 µM, first compound 3.16 µM
[12] = second compound 0.316 µM, first compound 10 µM
[13] = second compound 1 µM, first compound 0.0316 µM
[14] = second compound 1 µM, first compound 0.1 µM
[15] = second compound 1 µM, first compound 0.316 µM
[16] = second compound 1 µM, first compound 1 µM
[17] = second compound 1 µM, first compound 3.16 µM
[18] = second compound 1 µM, first compound 10 µM
[19] = second compound 3.16 µM, first compound 0.0316 µM
[20] = second compound 3.16 µM, first compound 0.1 µM
[21] = second compound 3.16 µM, first compound 0.316 µM
[22] = second compound 3.16 µM, first compound 1 µM
[23] = second compound 3.16 µM, first compound 3.16 µM
[24] = second compound 3.16 µM, first compound 10 µM
[25] = second compound 10 µM, first compound 0.0316 µM
[26] = second compound 10 µM, first compound 0.1 µM
[27] = second compound 10 µM, first compound 0.316 µM
[28] = second compound 10 µM, first compound 1 µM
[29] = second compound 10 µM, first compound 3.16 µM
[30] = second compound 10 µM, first compound 10 µM
[31] = second compound 0.0316 µM, first compound 0.0316 µM
[32] = second compound 0.0316 µM, first compound 0.1 µM
[33] = second compound 0.0316 µM, first compound 0.316 µM
[34] = second compound 0.0316 µM, first compound 1 µM
[35] = second compound 0.0316 µM, first compound 3.16 µM
[36] = second compound 0.0316 µM, first compound 10 µM
[37] = second compound 0.1 µM, first compound 0.000316 µM
[38] = second compound 0.1 µM, first compound 0.001 µM
[39] = second compound 0.1 µM, first compound 0.00316 µM
[40] = second compound 0.1 µM, first compound 0.01 µM
[41] = second compound 0.316 µM, first compound 0.000316 µM
[42] = second compound 0.316 µM, first compound 0.001 µM
[43] = second compound 0.316 µM, first compound 0.00316 µM
[44] = second compound 0.316 µM, first compound 0.01 µM
[45] = second compound 1 µM, first compound 0.000316 µM
[46] = second compound 1 µM, first compound 0.001 µM
[47] = second compound 1 µM, first compound 0.00316 µM
[48] = second compound 1 µM, first compound 0.01 µM
[49] = second compound 3.16 µM, first compound 0.000316 µM
[50] = second compound 3.16 µM, first compound 0.001 µM
[51] = second compound 3.16 µM, first compound 0.00316 µM
[52] = second compound 3.16 µM, first compound 0.01 µM
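Also: spheroids exposed to compounds for seven days before readout.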
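For viability, T/C in this document: 100% = DMSO vehicle control luminescence of the spheroids.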

CCNC(=O)CC1N=C(c2ccc(Cl)cc2)c2cc(OC)ccc2-n2c(C)nnc21 (stereo not given) + CNCc1ccccc1-c1csc(C(C)Nc2nc(C)nc3cc(OC)c(OC)cc23)c1
inactive: viability, T/C [1] 106% | viability, T/C [2] 91.1% | viability, T/C [3] 90.4% | viability, T/C [4] 99.1% | viability, T/C [5] 96% | viability, T/C [6] 78.6% | viability, T/C [7] 103% | viability, T/C [8] 111% | viability, T/C [9] 98.3% | viability, T/C [10] 92.9% | viability, T/C [11] 92.4% | viability, T/C [12] 81.9% | viability, T/C [13] 90.4% | viability, T/C [14] 101% | viability, T/C [15] 92.2% | viability, T/C [16] 100% | viability, T/C [17] 92.1% | viability, T/C [18] 73.8% | viability, T/C [19] 44.8% | viability, T/C [20] 43.3% | viability, T/C [21] 38% | viability, T/C [22] 31.3% | viability, T/C [23] 34.4% | viability, T/C [24] 31%
active: viability, T/C [25] 0.08% | viability, T/C [26] 0.08% | viability, T/C [27] 0.08% | viability, T/C [28] 0.08% | viability, T/C [29] 0.07% | viability, T/C [30] 0.45%
< 5.00: pIC50 (second compound 0.1 µM) | pIC50 (second compound 0.316 µM) | pIC50 (second compound 1 µM)
> 7.50: pIC50 (second compound 3.16 µM) | pIC50 (second compound 10 µM)

COC(=O)c1ccc2c(C(=Nc3ccc(N(C)C(=O)CN4CCN(C)CC4)cc3)c3ccccc3)c(O)[nH]c2c1 + C=CC(=O)N1CCN(c2nc(=O)n(-c3c(C)ccnc3C(C)C)c3nc(-c4c(O)cccc4F)c(F)cc23)C(C)C1
inactive: viability, T/C [1] 91.1% | viability, T/C [2] 89.7% | viability, T/C [3] 92.3% | viability, T/C [4] 91.8% | viability, T/C [5] 83.5% | viability, T/C [6] 85% | viability, T/C [7] 89% | viability, T/C [8] 99.9% | viability, T/C [9] 94% | viability, T/C [10] 89.9% | viability, T/C [11] 84.5% | viability, T/C [12] 85.5% | viability, T/C [13] 90.6% | viability, T/C [14] 91.2% | viability, T/C [15] 84.9% | viability, T/C [16] 76.3% | viability, T/C [17] 77.3% | viability, T/C [18] 83.4% | viability, T/C [19] 93% | viability, T/C [20] 101% | viability, T/C [21] 88.3% | viability, T/C [22] 88.7% | viability, T/C [23] 75% | viability, T/C [24] 85.7% | viability, T/C [25] 95.6% | viability, T/C [26] 104% | viability, T/C [27] 93.5% | viability, T/C [28] 87.4% | viability, T/C [29] 77.5% | viability, T/C [30] 75.4%
< 5.00: pIC50 (second compound 0.1 µM) | pIC50 (second compound 0.316 µM) | pIC50 (second compound 1 µM) | pIC50 (second compound 3.16 µM) | pIC50 (second compound 10 µM)

CC1OCC2(CCN(c3cnc(Sc4ccnc(N)c4Cl)c(N)n3)CC2)C1N (stereo not given) + C=CC(=O)N1CCN(c2nc(OCC3CCCN3C)nc3c2CCN(c2cccc4cccc(C)c24)C3)CC1CC#N
inactive: viability, T/C [31] 101% | viability, T/C [32] 99.7% | viability, T/C [33] 102% | viability, T/C [34] 85.4% | viability, T/C [35] 77.2% | viability, T/C [36] 75.3% | viability, T/C [1] 115% | viability, T/C [2] 107% | viability, T/C [3] 89.3% | viability, T/C [4] 85.3% | viability, T/C [5] 77.1% | viability, T/C [6] 83% | viability, T/C [7] 89.8% | viability, T/C [8] 95.6% | viability, T/C [9] 93.4% | viability, T/C [10] 84.7% | viability, T/C [11] 83.4% | viability, T/C [12] 72.8% | viability, T/C [13] 59.1% | viability, T/C [14] 68.1% | viability, T/C [15] 65.3% | viability, T/C [16] 69% | viability, T/C [17] 66.2% | viability, T/C [18] 64.8% | viability, T/C [19] 60.1% | viability, T/C [20] 58.7% | viability, T/C [21] 59.4% | viability, T/C [22] 68.5% | viability, T/C [23] 60.6% | viability, T/C [24] 58.9%
< 5.00: pIC50 (second compound 0.0316 µM) | pIC50 (second compound 0.1 µM) | pIC50 (second compound 0.316 µM) | pIC50 (second compound 1 µM) | pIC50 (second compound 3.16 µM)

CC(C)n1nc(-c2ccc3oc(N)nc3c2)c2c(N)ncnc21 + C=CC(=O)N1CCN(c2nc(OCC3CCCN3C)nc3c2CCN(c2cccc4cccc(C)c24)C3)CC1CC#N
8.64: pIC50 (second compound 3.16 µM)
7.82: pIC50 (second compound 0.0316 µM) | pIC50 (second compound 0.316 µM)
7.85: pIC50 (second compound 1 µM)
7.63: pIC50 (second compound 0.1 µM)
inactive: viability, T/C (second compound 0.0316 µM, first compound 0.000316 µM) 118% | viability, T/C (second compound 0.0316 µM, first compound 0.001 µM) 109% | viability, T/C (second compound 0.0316 µM, first compound 0.00316 µM) 87.6% | viability, T/C (second compound 0.0316 µM, first compound 0.01 µM) 63.1% | viability, T/C [31] 30.1% | viability, T/C [32] 21.1% | viability, T/C [37] 113% | viability, T/C [38] 115% | viability, T/C [39] 90.6% | viability, T/C [40] 68.1% | viability, T/C [1] 45.2% | viability, T/C [2] 22.3% | viability, T/C [41] 111% | viability, T/C [42] 115% | viability, T/C [43] 101% | viability, T/C [44] 61% | viability, T/C [7] 31.6% | viability, T/C [8] 23.6% | viability, T/C [45] 108% | viability, T/C [46] 118% | viability, T/C [47] 83% | viability, T/C [48] 58.8% | viability, T/C [13] 34.6% | viability, T/C [14] 23.1% | viability, T/C [49] 86% | viability, T/C [50] 52.7% | viability, T/C [51] 56.7% | viability, T/C [52] 23.9% | viability, T/C [19] 29.2% | viability, T/C [20] 12.6%

CC(C)n1nc(-c2ccc3oc(N)nc3c2)c2c(N)ncnc21 + COc1cc2nc(C)nc(NC(C)c3cc(N)cc(C(F)(F)F)c3)c2cc1OC1CCOC1
7.68: pIC50 (second compound 0.1 µM) | pIC50 (second compound 0.316 µM) | pIC50 (second compound 1 µM)
7.70: pIC50 (second compound 3.16 µM)
7.94: pIC50 (second compound 10 µM)
inactive: viability, T/C [37] 99% | viability, T/C [38] 118% | viability, T/C [39] 91.2% | viability, T/C [40] 76.2% | viability, T/C [1] 34.7% | viability, T/C [2] 21.4% | viability, T/C [41] 102% | viability, T/C [42] 100% | viability, T/C [43] 81.7% | viability, T/C [44] 70.2% | viability, T/C [7] 38.7% | viability, T/C [8] 24% | viability, T/C [45] 88.7% | viability, T/C [46] 98.6% | viability, T/C [47] 87.2% | viability, T/C [48] 72.2% | viability, T/C [13] 37% | viability, T/C [14] 23.6% | viability, T/C [49] 85.3% | viability, T/C [50] 98.2% | viability, T/C [51] 88.2% | viability, T/C [52] 76.7% | viability, T/C [19] 32.6% | viability, T/C [20] 22.5% | viability, T/C (second compound 10 µM, first compound 0.000316 µM) 86.4% | viability, T/C (second compound 10 µM, first compound 0.001 µM) 97% | viability, T/C (second compound 10 µM, first compound 0.00316 µM) 73.7% | viability, T/C (second compound 10 µM, first compound 0.01 µM) 51.9% | viability, T/C [25] 34.2% | viability, T/C [26] 21%

Cn1nccc1Nc1nccc(-c2cc3c(s2)C(C)(C)N(CCN2CCOCC2)C3=O)n1 + C=CC(=O)N1CCN(c2nc(OCC3CCCN3C)nc3c2CCN(c2cccc4cccc(C)c24)C3)CC1CC#N
active: viability, T/C [36] 4.17% | viability, T/C [6] 3.82% | viability, T/C [12] 3.62% | viability, T/C [18] 2.36% | viability, T/C [24] 0.25%
5.63: pIC50 (second compound 0.0316 µM)
5.89: pIC50 (second compound 3.16 µM)
inactive: viability, T/C [31] 99.1% | viability, T/C [32] 112% | viability, T/C [33] 89.8% | viability, T/C [34] 82% | viability, T/C [35] 38.4% | viability, T/C [1] 89.9% | viability, T/C [2] 89.9% | viability, T/C [3] 95.3% | viability, T/C [4] 94.1% | viability, T/C [5] 49.8% | viability, T/C [7] 112% | viability, T/C [8] 92.3% | viability, T/C [9] 91.2% | viability, T/C [10] 75.9% | viability, T/C [11] 43% | viability, T/C [13] 71.3% | viability, T/C [14] 74.5% | viability, T/C [15] 68.6% | viability, T/C [16] 66.7% | viability, T/C [17] 29.3% | viability, T/C [19] 81.9% | viability, T/C [20] 74.3% | viability, T/C [21] 63% | viability, T/C [22] 62.4% | viability, T/C [23] 11.8%
5.50: pIC50 (second compound 0.1 µM)
5.60: pIC50 (second compound 0.316 µM)
5.78: pIC50 (second compound 1 µM)
